How the values were obtained:
mature osteoclasts = settings: known non-specific chloride channel inhibitor; cited from earlier work
Raw264.7 cells = assay: RNAi transfection and bone resorption (bovine cortical bone particles, C-telopeptide Crosslaps ELISA); type: cell-based, mouse; settings: 100 ng/ml RANKL, day 7, FIG. 2
Procedure: For RNAi transfection and bone resorption, the experiment was performed as follows: 1×10^4 Raw264.7 cells were seeded per 48 well and were cultured for 4 days with 100 ng/ml RANKL. The RNAi reagent was obtained from Sequitur. On day 4, the cells were transfected with 150 nM RNAi and 2 μg/ml lipofectamine overnight. The next day, the medium was replaced and 10 mg of powered bovine cortical bone particles (PelFreeze, Inc) were distributed into each well (James, I. E., et al. (1999) J. Bone Miner. Res., 14:1562-9). The particles were resuspended in […] of tissue culture media and incubated at 4° C. for 24 h storage. 200 μl bone particles were added to the precultured cells. The bone particles were allowed to settle for 10 min, and the cells were cultured for another 48 h at which time 100 μl of the supernatant was removed for the C-telopeptide Crosslaps™ ELISA analysis according to the manufacturer's instructions (Nordic Bioscience/Denmark). The absorbance was measured at 450 nm (Molecular Devices, Sunnyvale, Calif.).

Row | Molecule | acidification of mature osteoclasts (mature osteoclasts) | increase of bone resorption (Raw264.7 cells) [fold]
1 | O=C(O)c1cccnc1Nc1cccc(C(F)(F)F)c1 [niflumic acid] | inhibits the acidification | 
2 | RANKL: recombinant soluble RANKL: extracellular domain of human RANKL (amino acids 158-317) fused to glutathione-S-transferase, expressed in E. coli (protein, UniProt O14788 158-317, looked up, fragment, extracellular domain GST fusion, recombinant soluble RANKL: extracellular domain of human RANKL (amino acids 158-317) fused to glutathione-S-transferase, expressed in E. coli) SKLEAQPFAHLTINATDIPSGSHKVSLSSWYHDRGWAKISNMTFSNGKLIVNQDGFYYLYANICFRHHETSGDLATEYLQLMVYVTKTSIKIPSSHTLMKGGSTKYWSGNSEFHFYSINVGGFFKLRSGEEISIEVSNPSLLDPDQDATYFGAFKVRDID |  | 2.2
